From the OligoGym collection
HELM strings list units from the 5' end as sugar, base in round brackets, then linkage (d deoxyribose, r ribose, m 2'-O-methyl, p phosphodiester). Strings are as the collection lists them, not checked against the first reports. ss, as = sense and antisense strand; [lna] = locked nucleic acid (LNA); [una] = unlocked nucleic acid; [hna] = hexitol nucleic acid; [s4r] = 4'-thioribose; [fl2r] = 2'-fluoro

details: siRNA
Also: test system not given here.

Compared with “RNA1{m(G)p.r(G)p.m(A)p.r(G)p.m(C)p.r(A)p.m(C)p.r(G)p.m(C)p.r(U)p.m(U)p.r(A)p.m(C)p.r(U)p.m(A)p.r(C)p.m(C)p.r(U)p.m(U)p.r(T)p.r(T)}|RNA2{r(A)p.r(A)p.r(G)p.r(G)p.r(U)p.r(A)p.r(G)p.r(U)p.r(A)p.r(A)p.r(G)p.r(C)p.r(G)p.r(U)p.r(G)p.r(C)p.r(U)p.r(C)p.r(C)p.r(T)p.r(T)}$$$RNA1{StrandType:ss}|RNA2{StrandType:as}$”, “RNA1{[fl2r](A)p.r(A)p.[fl2r](A)p.r(C)p.[fl2r](C)p.r(A)p.[fl2r](G)p.r(G)p.[fl2r](A)p.r(A)p.[fl2r](G)p.r(G)p.[fl2r](G)p.r(G)p.[fl2r](A)p.r(A)p.[fl2r](A)p.r(U)p.[fl2r](C)p.r(T)p.r(T)}|RNA2{r(G)p.[fl2r](A)p.r(U)p.r(U)p.r(U)p.r(C)p.r(C)p.r(C)p.r(C)p.r(U)p.r(U)p.r(C)p.r(C)p.r(U)p.r(G)p.r(G)p.r(U)p.r(U)p.r(U)p.r(T)p.r(T)}$$$RNA1{StrandType:ss}|RNA2{StrandType:as}$” is lower in target mRNA knockdown: 51% for the first, 42% for the second.

Compared with “RNA1{[hna](G)p.[hna](A)p.[hna](C)p.r(G)p.r(U)p.r(A)p.r(A)p.r(A)p.r(C)p.r(G)p.r(G)p.r(C)p.r(C)p.r(A)p.r(C)p.r(A)p.r(A)p.[hna](G)p.[hna](U)p.[hna](U)p.d(T)}|RNA2{r(A)p.[hna](C)p.r(U)p.r(U)p.r(G)p.r(U)p.r(G)p.r(G)p.[hna](C)p.r(C)p.r(G)p.r(U)p.r(U)p.r(U)p.r(A)p.r(C)p.r(G)p.[hna](U)p.[hna](C)p.[hna](G)p.d(T)}$$$RNA1{StrandType:ss}|RNA2{StrandType:as}$”, “RNA1{r(A)p.r(G)p.r(U)p.r(C)p.r(C)p.r(C)p.r(U)p.r(G)p.r(G)p.r(A)p.r(G)p.r(C)p.r(C)p.r(U)p.m(U)p.m(A)p.r(A)p.r(A)p.r(C)p.r(T)p.r(T)}|RNA2{r(G)p.r(U)p.r(U)p.r(U)p.m(A)p.r(A)p.r(G)p.r(G)p.r(C)p.r(U)p.r(C)p.r(C)p.r(A)p.r(G)p.r(G)p.r(G)p.r(A)p.r(C)p.r(U)p.r(T)p.r(T)}$$$RNA1{StrandType:ss}|RNA2{StrandType:as}$” is higher in target mRNA knockdown: 35.8% for the first, 62% for the second.

First: RNA1{r(U)p.m(U)p.m(A)p.r(A)p.r(A)p.r(G)p.m(G)p.r(G)p.r(C)p.r(G)p.r(A)p.r(G)p.r(A)p.r(A)p.r(G)p.r(A)p.r(C)p.r(C)p.r(G)p.r(T)p.r(T)}|RNA2{r(C)p.r(G)p.r(G)p.r(U)p.r(C)p.r(U)p.r(U)p.r(C)p.r(U)p.r(C)p.r(G)p.r(C)p.r(C)p.r(C)p.r(U)p.r(U)p.m(U)p.r(A)p.r(A)p.r(T)p.r(T)}$$$RNA1{StrandType:ss}|RNA2{StrandType:as}$
Second: RNA1{[s4r](C)p.[s4r](G)p.[s4r](U)p.[s4r](A)p.[s4r](C)p.[s4r](G)p.r(C)p.r(G)p.r(G)p.r(A)p.r(A)p.r(U)p.r(A)p.r(C)p.r(U)p.r(U)p.r(C)p.r(G)p.r(A)p.r(T)p.r(T)}|RNA2{r(U)p.r(C)p.r(G)p.r(A)p.r(A)p.r(G)p.r(U)p.r(A)p.r(U)p.r(U)p.r(C)p.r(C)p.r(G)p.r(C)p.r(G)p.r(U)p.r(A)p.r(C)p.r(G)p.r(T)p.r(T)}$$$RNA1{StrandType:ss}|RNA2{StrandType:as}$
The target mRNA knockdown of the first is lower: 85% for the first, 94% for the second.

First: RNA1{r(A)p.r(A)p.r(A)p.r(C)p.r(C)p.r(C)p.r(C)p.m(U)p.r(A)p.r(G)p.r(A)p.r(G)p.r(G)p.r(G)p.r(C)p.r(A)p.r(A)p.r(G)p.r(U)p.r(T)p.r(T)}|RNA2{r(A)p.r(C)p.r(U)p.r(U)p.r(G)p.r(C)p.r(C)p.r(C)p.r(U)p.r(C)p.m(U)p.r(A)p.r(G)p.r(G)p.r(G)p.r(G)p.r(U)p.r(U)p.r(U)p.r(T)p.r(T)}$$$RNA1{StrandType:ss}|RNA2{StrandType:as}$
Second: RNA1{m(U)p.r(C)p.m(C)p.r(U)p.m(C)p.r(G)p.m(U)p.r(C)p.m(G)p.r(U)p.m(C)p.r(U)p.m(G)p.r(U)p.m(U)p.r(C)p.m(U)p.r(A)p.m(A)p.r(T)p.r(T)}|RNA2{r(U)p.r(U)p.m(A)p.r(G)p.m(A)p.r(A)p.r(C)p.r(A)p.r(G)p.r(A)p.r(C)p.r(G)p.r(A)p.r(C)p.r(G)p.r(A)p.m(G)p.r(G)p.m(A)p.r(T)p.r(T)}$$$RNA1{StrandType:ss}|RNA2{StrandType:as}$
The target mRNA knockdown of the first is higher: 75% for the first, 63% for the second.

First: RNA1{m(G)p.r(A)p.m(A)p.r(G)p.m(A)p.r(G)p.m(C)p.r(C)p.m(U)p.r(A)p.m(C)p.r(A)p.m(C)p.r(A)p.m(A)p.r(C)p.m(C)p.r(C)p.m(U)p.r(T)p.r(T)}|RNA2{r(A)p.r(G)p.r(G)p.r(G)p.r(U)p.r(U)p.r(G)p.r(U)p.m(G)p.r(U)p.m(A)p.r(G)p.m(G)p.r(C)p.m(U)p.r(C)p.m(U)p.r(U)p.m(C)p.r(T)p.r(T)}$$$RNA1{StrandType:ss}|RNA2{StrandType:as}$
Second: RNA1{r(G)p.r(U)p.r(A)p.r(U)p.r(G)p.r(A)p.r(C)p.r(C)p.r(G)p.r(A)p.r(C)p.r(U)p.r(A)p.r(C)p.r(G)p.r(C)p.r(G)p.r(U)p.r(A)p.r(T)p.r(T)}|RNA2{r(U)p.r(U)p.r(C)p.r(A)p.r(G)p.r(U)p.r(G)p.r(U)p.r(G)p.r(A)p.r(U)p.r(G)p.r(A)p.r(C)p.r(A)p.r(C)p.r(U)p.r(U)p.[una](G)p.r(T)p.r(T)}$$$RNA1{StrandType:ss}|RNA2{StrandType:as}$
The target mRNA knockdown of the first is lower: 50% for the first, 82% for the second.

Compared with “RNA1{r(C)p.r(U)p.r(U)p.r(A)p.r(C)p.r(G)p.r(C)p.r(U)p.r(G)p.r(A)p.r(G)p.r(U)p.r(A)p.r(C)p.r(U)p.r(U)p.r(C)p.r(G)p.r(A)p.r(T)p.r(T)}|RNA2{r(U)p.[lna](C)p.r(G)p.r(A)p.r(A)p.r(G)p.r(U)p.r(A)p.r(C)p.r(U)p.r(C)p.r(A)p.r(G)p.r(C)p.r(G)p.r(U)p.r(A)p.r(A)p.r(G)p.r(T)p.r(T)}$$$RNA1{StrandType:ss}|RNA2{StrandType:as}$”, “RNA1{r(C)p.m(U)p.r(G)p.r(A)p.r(C)p.r(C)p.r(G)p.r(G)p.r(A)p.r(A)p.r(G)p.r(C)p.r(G)p.r(C)p.r(U)p.m(U)p.r(A)p.r(A)p.r(A)p.r(T)p.r(T)}|RNA2{r(U)p.r(U)p.m(U)p.r(A)p.r(A)p.r(G)p.r(C)p.r(G)p.r(C)p.r(U)p.r(U)p.r(C)p.r(C)p.r(G)p.r(G)p.r(U)p.m(C)p.r(A)p.r(G)p.r(T)p.r(T)}$$$RNA1{StrandType:ss}|RNA2{StrandType:as}$” is higher in target mRNA knockdown: 0% for the first, 85% for the second.

First: RNA1{r(A)p.r(A)p.m(C)p.r(U)p.m(C)p.r(U)p.r(A)p.m(C)p.r(U)p.r(G)p.r(U)p.r(G)p.r(G)p.r(A)p.r(G)p.r(U)p.m(C)p.r(G)p.r(G)p.r(T)p.r(T)}|RNA2{m(C)p.m(C)p.r(G)p.r(A)p.m(C)p.r(U)p.m(C)p.m(C)p.r(A)p.m(C)p.r(A)p.r(G)p.r(U)p.r(A)p.r(G)p.r(A)p.r(G)p.r(U)p.r(U)p.r(T)p.r(T)}$$$RNA1{StrandType:ss}|RNA2{StrandType:as}$
Second: RNA1{r(C)p.r(U)p.r(U)p.r(A)p.r(C)p.r(G)p.r(C)p.r(U)p.r(G)p.r(A)p.r(G)p.r(U)p.r(A)p.r(C)p.r(U)p.r(U)p.r(C)p.r(G)p.r(A)p.r(T)p.r(T)}|RNA2{r(U)p.r(C)p.r(G)p.r(A)p.r(A)p.r(G)p.r(U)p.r(A)p.r(C)p.r(U)p.r(C)p.r(A)p.[lna](G)p.r(C)p.r(G)p.r(U)p.r(A)p.r(A)p.r(G)p.r(T)p.r(T)}$$$RNA1{StrandType:ss}|RNA2{StrandType:as}$
The target mRNA knockdown of the first is lower: 57% for the first, 65% for the second.

First: RNA1{r(A)p.r(A)p.r(G)p.[fl2r](U)p.r(A)p.r(G)p.r(U)p.r(C)p.r(C)p.r(C)p.[fl2r](C)p.r(C)p.r(U)p.[fl2r](U)p.r(G)p.r(A)p.r(A)p.r(G)p.r(A)p.r(T)p.r(T)}|RNA2{r(U)p.r(C)p.r(U)p.r(U)p.[fl2r](C)p.r(A)p.r(A)p.r(G)p.r(G)p.r(G)p.r(G)p.r(G)p.r(A)p.r(C)p.[fl2r](U)p.r(A)p.r(C)p.r(U)p.r(U)p.r(T)p.r(T)}$$$RNA1{StrandType:ss}|RNA2{StrandType:as}$
Second: RNA1{r(A)p.r(A)p.r(A)p.r(C)p.r(C)p.r(C)p.r(C)p.[fl2r](U)p.r(A)p.r(G)p.r(A)p.r(G)p.r(G)p.[fl2r](G)p.r(C)p.r(A)p.r(A)p.r(G)p.r(U)p.r(T)p.r(T)}|RNA2{r(A)p.r(C)p.r(U)p.[fl2r](U)p.r(G)p.r(C)p.r(C)p.r(C)p.r(U)p.r(C)p.[fl2r](U)p.r(A)p.r(G)p.r(G)p.r(G)p.r(G)p.r(U)p.r(U)p.r(U)p.r(T)p.r(T)}$$$RNA1{StrandType:ss}|RNA2{StrandType:as}$
The target mRNA knockdown of the first is lower: 64% for the first, 82% for the second.

First: RNA1{r(G)p.r(C)p.r(A)p.r(G)p.r(C)p.r(A)p.r(C)p.r(G)p.r(A)p.r(C)p.r(U)p.r(U)p.r(C)p.r(U)p.r(U)p.r(C)p.r(A)p.r(A)p.r(G)p.r(U)p.r(U)}|RNA2{r(C)p.[fl2r](U)p.r(U)p.r(G)p.r(A)p.r(A)p.r(G)p.r(A)p.r(A)p.r(G)p.r(U)p.r(C)p.r(G)p.r(U)p.r(G)p.r(C)p.r(U)p.r(G)p.r(C)p.r(U)p.r(U)}$$$RNA1{StrandType:ss}|RNA2{StrandType:as}$
Second: RNA1{r(G)p.r(A)p.r(C)p.r(G)p.r(U)p.r(A)p.r(A)p.r(A)p.r(C)p.r(G)p.r(G)p.r(C)p.r(C)p.r(A)p.r(C)p.r(A)p.r(A)p.r(G)p.r(U)p.[lna](T)p.[lna](C)}|RNA2{[fl2r](A)p.m(C)p.[fl2r](U)p.m(U)p.[fl2r](G)p.m(U)p.[fl2r](G)p.m(G)p.[fl2r](C)p.m(C)p.[fl2r](G)p.m(U)p.[fl2r](U)p.m(U)p.[fl2r](A)p.m(C)p.[fl2r](G)p.m(U)p.[fl2r](C)p.m(G)p.[fl2r](C)}$$$RNA1{StrandType:ss}|RNA2{StrandType:as}$
The target mRNA knockdown of the first is lower: 73.8% for the first, 81.2% for the second.

First: RNA1{r(U)p.r(C)p.m(U)p.r(A)p.m(C)p.r(A)p.r(C)p.r(C)p.r(G)p.m(C)p.r(G)p.r(C)p.m(C)p.r(C)p.r(C)p.r(C)p.r(C)p.r(U)p.r(C)p.r(T)p.r(T)}|RNA2{r(G)p.r(A)p.r(G)p.r(G)p.r(G)p.r(G)p.r(G)p.r(G)p.r(C)p.r(G)p.r(C)p.r(G)p.r(G)p.m(U)p.r(G)p.m(U)p.r(A)p.r(G)p.r(A)p.r(T)p.r(T)}$$$RNA1{StrandType:ss}|RNA2{StrandType:as}$
Second: RNA1{r(G)p.r(G)p.r(C)p.r(G)p.r(G)p.r(G)p.r(C)p.r(U)p.r(C)p.r(U)p.r(U)p.r(U)p.r(C)p.r(C)p.m(U)p.r(A)p.r(U)p.r(U)p.r(C)p.r(T)p.r(T)}|RNA2{r(G)p.r(A)p.r(A)p.m(U)p.r(A)p.r(G)p.r(G)p.r(A)p.r(A)p.r(A)p.r(G)p.r(A)p.r(G)p.r(C)p.r(C)p.r(C)p.r(G)p.r(C)p.r(C)p.r(T)p.r(T)}$$$RNA1{StrandType:ss}|RNA2{StrandType:as}$
The target mRNA knockdown of the first is higher: 73% for the first, 69% for the second.
